Reference: PubChem BioAssay (NCI)
“And” between values parts separate entries of the source, which are not always exact repeats. Equal values may be shown once.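 Grown in 96-well plates, cells were treated for 48 hours with each compound at five concentrations. Insufficient inhibition: endpoint recorded as highest concentration tested. The concentration for 50% growth inhibition is given as GI50. Definition used: TGI = concentration required for complete inhibition of growth.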

Columns and labels:
Experiment in all cases: DTP human tumour cell line panel, 48 h
NCI-H23 lung = system: NCI-H23 lung
SW-620 colon = system: SW-620 colon
SF-295 CNS = system: SF-295 CNS
SF-539 CNS = system: SF-539 CNS
LOX IMVI melanoma = system: LOX IMVI melanoma
786-0 renal = system: 786-0 renal
HOP-62 NSCLC = system: HOP-62 NSCLC
SN12C renal = system: SN12C renal
ACHN renal = system: ACHN renal
EKVX NSCLC = system: EKVX NSCLC

## CCc1cc(C(=O)OC)cn1C(=N)c1ccc(Cl)cc1
NCI-H23 lung
  TGI: > 100 µM
SW-620 colon
  TGI: > 100 µM
SF-295 CNS
  TGI: > 100 µM
SF-539 CNS
  TGI: > 100 µM
LOX IMVI melanoma
  TGI: > 100 µM
786-0 renal
  TGI: > 100 µM
HOP-62 NSCLC
  TGI: > 100 µM
SN12C renal
  TGI: > 100 µM
ACHN renal
  TGI: > 100 µM
EKVX NSCLC
  TGI: > 100 µM

## Cc1nn2c(/C=C3\C(=O)Nc4ccc(Cl)cc43)c(C)nc2s1
NCI-H23 lung
  GI50: 77.1 µM
  TGI: > 100 µM
SW-620 colon
  GI50: 23.4 µM
  TGI: > 100 µM
SF-295 CNS
  GI50: 16.7 µM
  TGI: > 100 µM
SF-539 CNS
  GI50: 45 µM
  TGI: > 100 µM
LOX IMVI melanoma
  GI50: 83.1 µM
  TGI: > 100 µM
786-0 renal
  GI50: 33.7 µM
  TGI: > 100 µM
HOP-62 NSCLC
  GI50: 61.1 µM
  TGI: > 100 µM
SN12C renal
  GI50: > 100 µM
  TGI: > 100 µM
ACHN renal
  GI50: 72.9 µM
  TGI: > 100 µM
EKVX NSCLC
  GI50: 92 µM
  TGI: > 100 µM

## COc1ccc(C(=O)OC2C(OC3C(O)COC(O[C@H]4C[C@H]5[C@@H]6CC=C7C[C@@H](O)CC[C@]7(C)[C@H]6CC[C@]5(C)[C@H]4[C@H](C)C(=O)CCC(C)C)C3OC(N)=O)OCC(O)C2O)cc1 (stereo not given in full)
NCI-H23 lung
  GI50: 0.375 µM
  TGI: 4.81 µM
SW-620 colon
  GI50: 0.0183 µM
  TGI: 0.429 µM
SF-295 CNS
  GI50: < 0.003 µM
  TGI: 0.00922 µM
SF-539 CNS
  GI50: < 0.003 µM
  TGI: 0.0685 µM
LOX IMVI melanoma
  GI50: 0.0137 µM
  TGI: 0.158 µM
786-0 renal
  GI50: 0.00486 µM
  TGI: 3.13 µM
HOP-62 NSCLC
  GI50: 0.0247 µM
  TGI: 1.7 µM
SN12C renal
  GI50: 2.61 µM
  TGI: 7.04 µM
ACHN renal
  GI50: 0.471 µM
  TGI: 5.53 µM
EKVX NSCLC
  GI50: 0.102 µM
  TGI: 4.1 µM

## C=C1C(=O)O[C@H]2[C@H]1CC/C(COC(=O)NCc1ccc(Cn3c(=O)sn(CCCl)c3=O)cc1)=C\CC[C@@]1(C)O[C@@H]21
NCI-H23 lung
  GI50: 2.18 µM
  TGI: 5.2 µM
SW-620 colon
  GI50: 1.17 µM
  TGI: 2.69 µM
SF-295 CNS
  GI50: 16.4 µM
  TGI: 30.3 µM
SF-539 CNS
  GI50: 1.82 µM
  TGI: 3.26 µM
LOX IMVI melanoma
  GI50: 1.69 µM
  TGI: 3.12 µM
786-0 renal
  GI50: 1.79 µM
  TGI: 3.27 µM
HOP-62 NSCLC
  GI50: 16.3 µM
  TGI: 31.5 µM
SN12C renal
  GI50: 2.01 µM
  TGI: 4.28 µM
ACHN renal
  GI50: 1.54 µM
  TGI: 2.87 µM
EKVX NSCLC
  GI50: 1.99 µM
  TGI: 5.25 µM

## Cc1ccc(S(=O)(=O)N/N=C/c2c(O)ccc3ccccc23)cc1
NCI-H23 lung
  TGI: 83.2 µM
SW-620 colon
  TGI: > 100 µM
SF-295 CNS
  TGI: 57.5 µM
SF-539 CNS
  TGI: 41.8 µM
LOX IMVI melanoma
  TGI: > 100 µM
786-0 renal
  TGI: > 100 µM
HOP-62 NSCLC
  TGI: > 100 µM
SN12C renal
  TGI: > 100 µM
ACHN renal
  TGI: > 100 µM
EKVX NSCLC
  TGI: > 100 µM

## Cc1ccc(Nc2n[nH]c(=S)s2)cc1C
NCI-H23 lung
  TGI: > 100 µM
SW-620 colon
  TGI: > 100 µM
SF-295 CNS
  TGI: > 100 µM
SF-539 CNS
  TGI: > 100 µM
LOX IMVI melanoma
  TGI: > 100 µM
786-0 renal
  TGI: > 100 µM
HOP-62 NSCLC
  TGI: > 100 µM
SN12C renal
  TGI: > 100 µM
ACHN renal
  TGI: > 100 µM
EKVX NSCLC
  TGI: > 100 µM

## Cc1ccc(S(=O)(=O)OC2CSS(=O)CC2OS(=O)(=O)c2ccc(C)cc2)cc1 (stereo not given)
NCI-H23 lung
  TGI: 29 µM
SW-620 colon
  TGI: 18.9 µM
SF-295 CNS
  TGI: 29.2 µM
SF-539 CNS
  TGI: 29.2 µM
LOX IMVI melanoma
  TGI: 26.1 µM
786-0 renal
  TGI: 30.5 µM
HOP-62 NSCLC
  TGI: 36.7 µM
SN12C renal
  TGI: 28.5 µM
ACHN renal
  TGI: 31.3 µM
EKVX NSCLC
  TGI: 35.7 µM

## CCN(CC)CCCC(C)Nc1ccnc2cc(Oc3ccccc3)ccc12 (stereo not given)
NCI-H23 lung
  GI50: 10.4 µM and 22.8 µM
  TGI: 28.7 µM and > 100 µM
SW-620 colon
  GI50: 3.36 µM and 5.53 µM
  TGI: 14.3 µM and 25.9 µM
SF-295 CNS
  GI50: 2.69 µM and 4.09 µM
  TGI: 17.4 µM and 19 µM
SF-539 CNS
  GI50: 2.15 µM and 2 µM
  TGI: 4.35 µM and 4.28 µM
LOX IMVI melanoma
  GI50: 2.05 µM and 2.13 µM
  TGI: 5.06 µM and 6.82 µM
786-0 renal
  GI50: 4.53 µM and 5.09 µM
  TGI: 11.6 µM and 17.4 µM
HOP-62 NSCLC
  GI50: 7.45 µM and 11.5 µM
  TGI: 21.7 µM and 37.4 µM
SN12C renal
  GI50: 9.08 µM and 19.6 µM
  TGI: 39.5 µM and > 100 µM
ACHN renal
  GI50: 5.61 µM and 6.72 µM
  TGI: 26.2 µM and 29 µM
EKVX NSCLC
  GI50: 14.1 µM and 18.6 µM
  TGI: 31.8 µM and 98.7 µM

## C=C1CCC2C3(C)COC(c4ccc(N(C)C)cc4)OC3CCC2(C)C1C/C=C1/C(=O)OCC1O (stereo not given)
NCI-H23 lung
  GI50: 4.37 µM
  TGI: 15.7 µM
SW-620 colon
  GI50: 1.95 µM
  TGI: 4.25 µM
SF-295 CNS
  GI50: 6 µM
  TGI: 20 µM
SF-539 CNS
  GI50: 8.07 µM
  TGI: 20.5 µM
LOX IMVI melanoma
  GI50: 1.59 µM
  TGI: 3.5 µM
786-0 renal
  GI50: 10.5 µM
  TGI: 25.3 µM
HOP-62 NSCLC
  GI50: 18.4 µM
  TGI: 33.3 µM
SN12C renal
  GI50: 2.52 µM
  TGI: 7.98 µM
ACHN renal
  GI50: 9.16 µM
  TGI: 21.4 µM
EKVX NSCLC
  GI50: 6.43 µM
  TGI: 21.9 µM

## CC(=O)CC(=O)OC1CC(C)CCC1C(C)C (stereo not given)
NCI-H23 lung
  TGI: > 100 µM
SW-620 colon
  TGI: > 100 µM
SF-295 CNS
  TGI: > 100 µM
SF-539 CNS
  TGI: > 100 µM
LOX IMVI melanoma
  TGI: > 100 µM
786-0 renal
  TGI: > 100 µM
HOP-62 NSCLC
  TGI: > 100 µM
SN12C renal
  TGI: > 100 µM
ACHN renal
  TGI: > 100 µM
EKVX NSCLC
  TGI: > 100 µM

## CCN(CC)c1c(C(=O)/C=C/c2ccc(OC)cc2)c(-c2ccccc2)nn(C)c1=O
NCI-H23 lung
  TGI: 34.6 µM
SW-620 colon
  TGI: 98.4 µM
SF-295 CNS
  TGI: 63.6 µM
SF-539 CNS
  TGI: 45.9 µM
LOX IMVI melanoma
  TGI: 44.9 µM
786-0 renal
  TGI: 41.2 µM
HOP-62 NSCLC
  TGI: > 100 µM
SN12C renal
  TGI: 78.4 µM
ACHN renal
  TGI: > 100 µM
EKVX NSCLC
  TGI: 69.6 µM

## O=C(O)CNC(=O)c1ccc(-c2ccccc2)cc1
NCI-H23 lung
  TGI: > 100 µM
SW-620 colon
  TGI: > 100 µM
SF-295 CNS
  TGI: > 100 µM
SF-539 CNS
  TGI: > 100 µM
LOX IMVI melanoma
  TGI: > 100 µM
786-0 renal
  TGI: > 100 µM
HOP-62 NSCLC
  TGI: > 100 µM
SN12C renal
  TGI: > 100 µM
ACHN renal
  TGI: > 100 µM
EKVX NSCLC
  TGI: > 100 µM

## Cc1ccc2nc(NC(=O)C(=O)C(C#N)c3nc4ccccc4s3)sc2c1 (stereo not given)
NCI-H23 lung
  TGI: 83.9 µM
SW-620 colon
  TGI: > 100 µM
SF-295 CNS
  TGI: > 100 µM
SF-539 CNS
  TGI: 40.7 µM
LOX IMVI melanoma
  TGI: > 100 µM
786-0 renal
  TGI: > 100 µM
HOP-62 NSCLC
  TGI: 31.9 µM
SN12C renal
  TGI: > 100 µM
ACHN renal
  TGI: > 100 µM
EKVX NSCLC
  TGI: > 100 µM
